# Values quoted from earlier work, collected in patent publication US20080237028A1, “Nucleation in liquid, methods of use thereof and methods of generation thereof” (Hanoch KISLEV, priority 2006, published 2008).
# What was measured:
# [1] = tested on: biofilm forming P. aeroginosa bacteria; conditions: mature biofilm grown from bacteria treated with quorum sensing molecules; not in the untreated sample
# [2] = tested on: biofilms of wild-type Pseudomonas aeruginosa; conditions: compared to equivalent bacteria lacking ability to generate biofilm
# [3] = tested on: β-lactamase negative strain of Klebsiella pneumoniae; conditions: planktonic
# [4] = tested on: β-lactamase negative strain of Klebsiella pneumoniae grown as a biofilm
smiles,measurement,setting,value
NC[C@H]1O[C@H](O[C@H]2[C@H](O)[C@@H](O[C@H]3O[C@H](CO)[C@@H](O)[C@H](N)[C@H]3O)[C@H](N)C[C@@H]2N)[C@H](N)C[C@@H]1O [tobramicyn],bacteria death within biofilm,[1],complete bacteria death
OCl [sodium hypochlorite],concentration increase required to kill biofilms,[2],600 fold
CC1(C)S[C@@H]2[C@H](NC(=O)[C@H](N)c3ccccc3)C(=O)N2[C@H]1C(=O)O [Ampicillin],minimum inhibitory concentration (MIC),[3],2 mg/L
same,increase in MIC,"[4]; biofilm versus planktonic, 5000 μg/mL",2500 fold
same,survival of biofilm under treatment,[4]; treated for 4 hours with 5000 μg/mL ampicillin,survives well
